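Cultured in 96-well plates, cells were exposed to test compound for 48 hours across five concentrations. TGI: concentration producing complete growth inhibition.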
Tests used:
Test in all cases: NCI tumour cell line growth inhibition, 48 h
[1] = test system: 786-0 renal
[2] = test system: A498 renal
[3] = test system: A549 NSCLC
[4] = test system: ACHN renal
[5] = test system: BT-549 breast
[6] = test system: CAKI-1 renal
[7] = test system: CCRF-CEM leukemia
[8] = test system: COLO 205 colon
[9] = test system: DU-145 prostate
[10] = test system: EKVX NSCLC
[11] = test system: HCC-2998 colon
[12] = test system: HCT-116 colon
[13] = test system: HCT-15 colon
[14] = test system: HOP-62 NSCLC
[15] = test system: HS 578T breast
[16] = test system: HT29 colon
[17] = test system: IGROV1 ovarian
[18] = test system: K-562 leukemia
[19] = test system: KM12 colon
[20] = test system: LOX IMVI melanoma
[21] = test system: M14 melanoma
[22] = test system: MALME-3M melanoma
[23] = test system: MCF7 breast
[24] = test system: MDA-MB-231 breast
[25] = test system: MDA-MB-435
[26] = test system: MDA-N
[27] = test system: MOLT-4 leukemia
[28] = test system: NCI-H226 lung
[29] = test system: NCI-H23 lung
[30] = test system: NCI-H460 lung
[31] = test system: NCI-H522 lung
[32] = test system: NCI/ADR-RES ovarian
[33] = test system: OVCAR-3 ovarian
[34] = test system: OVCAR-4 ovarian
[35] = test system: OVCAR-5 ovarian
[36] = test system: OVCAR-8 ovarian
[37] = test system: PC-3 prostate
[38] = test system: RPMI-8226 leukemia
[39] = test system: RXF 393 renal
[40] = test system: SF-268 CNS
[41] = test system: SF-295 CNS
[42] = test system: SF-539 CNS
[43] = test system: SK-MEL-2 melanoma
[44] = test system: SK-MEL-28 melanoma
[45] = test system: SK-MEL-5 melanoma
[46] = test system: SK-OV-3 ovarian
[47] = test system: SN12C renal
[48] = test system: SNB-19 CNS
[49] = test system: SNB-75 CNS
[50] = test system: SW-620 colon
[51] = test system: T-47D breast
[52] = test system: TK-10 renal
[53] = test system: U251 CNS
[54] = test system: UACC-257 melanoma
[55] = test system: UACC-62 melanoma
[56] = test system: UO-31 renal

Measured: TGI

COC(=O)[C@@]1(NC(=O)C(CC(=O)OC(C)(C)C)NC(=O)OC(C)(C)C)C[C@H]1C (stereo partly specified)
> 100 µM: all assays above
